Patent US4315026A, “Alkylpolyoxysulfinyl and alkylpolythiosulfinyl derivatives of carbamate esters” (priority 1980, dated 1982)
Read-outs that look alike come from different tables or passages of the source.

Legend:
Assay type in all cases: in vivo
Swiss white mice = experiment: Mammalian toxicity, oral, Swiss white mice (LD50); details: propylene glycol carrier
Description: (§1) For mice toxicity, the compound was dissolved in propyleneglycol or corn oil as a carrier and all compounds were tested at the level up to 1,000 mg/kg. All of the above noted compounds tested were lower in toxicity as compared with the parent compounds.
(§2) Mammalian toxicity was determined against Swiss white mice.

[1] = test system: house flies, Musca domestica; experiment: whole plant or invertebrate; details: read-out: House flies LD50
Description: In another series of tests, stock 1% concentrated solutions of each of the test compounds of Table I below, and of the commercial related carbamate ester insecticides methomyl, carbofuran and oxamyl, were made in acetone, and such solutions were diluted with acetone to a concentration of 0.001-0.8%. House flies were treated topically on the notum by 1 μl of each of the diluted acetone solutions and percent mortality was counted 24 hours after application.

[2] = Mammalian toxicity, oral, Swiss white mice (LD50); details: mouse, in vivo, propylene glycol carrier
Description: as §1, §2

[3] = topical on the notum, 1 μl of 0.001-0.8% acetone solutions, 24 hours, 60° F

Row | Molecule | Mice LD50 (Swiss white mice) | LD50 [1, 3] | LD50 [2] | LD50 ([1]; topical, 24 h)
1 | 3-Methylphenyl N-(2-phenyl-1,3-dioxane-5-ylmethoxysulfinyl)-N-methylcarbamate [XVIII] | > 1,000 mg/kg | – | – | –
2 | CSC(=NOC(=O)N(C)S(=O)OCC12OCC3OC(C)(C)OC3C1OC(C)(C)O2)C(=O)N(C)C (stereo not drawn) [XXXIV, S-Methyl N-(2,3,4,5-Di-O-isopropylidene-1-α-O-fructopyranosylsulfinyl)-N-methylcarbamoyloxy-2-(N',N'-dimethylamino)-2-oxoethanimidothioate] | – | 20 mg/kg | 44 mg/kg | –
3 | CSC(=NOC(=O)N(C)S(=O)OC1C(C2COC(C)(C)O2)OC2OC(C)(C)OC21)C(=O)N(C)C (stereo not drawn) [XXXV, S-Methyl N-(1,2,5,6-di-O-isopropylidene-3-O-glucofuranosylsulfinyl) N-methylcarbamoyloxy-2-(N',N'-dimethylamino)-2-oxoethanimidothioate] | – | 26.5 mg/kg | 25 to 50 mg/kg | –
4 | CNC(=O)Oc1cccc2c1OC(C)(C)C2 [carbofuran, reference compound] | – | – | 2 mg/kg | 6.7 mg/kg
5 | CNC(=O)ON=C(SC)C(=O)N(C)C [oxamyl, reference compound] | – | 3.6 mg/kg | 3.7 mg/kg | –
